From US11661431B2, “Thienopyrrole compounds” (Gilead Sciences, Inc., priority 2021, dated 2023)
In brackets after ≈: the same amount, converted by molar mass. Like-named read-outs stand apart in the source and are kept apart here.

How the values were obtained:
[1] = target: MATE2-K (multidrug and toxin extrusion protein 2) (Homo sapiens (Human), UniProt Q86VL8); test: MATE2-K IC50 assay (14C-metformin uptake in transfected MDCK-II cells); assay type: in vitro ADME
Procedure: MATE2-K (multidrug and toxin extrusion protein 2) is expressed in the apical membrane in the kidney and mediates the elimination of compounds to urine. MDCK-II cells were maintained in DMEM with low glucose and 10% FBS. Cells passages up to 40 were seeded at 60K±10K cells/well on 96-well, transwell membrane plates approximately 24 hours before transfection. Transport assays were carried out approximately 48 hours after transfection. […]. The assay plate was then placed in a 37° C. incubator with orbital shaking at approximately 60 RPM for the pre-incubation time of 15 minutes. […]. The assay plate was incubated at 37° C. with orbital shaking at approximately 60 RPM for the incubation time of 5 minutes. At end of the 5-minute incubation, 15 μL of dosing solution was removed from each well containing the compound being tested and measured using LC/MS/MS for dose recovery assessment. The assay wells were then washed four times with ice cold PBS. 60 μL cell extraction solution was added to each well and the plate was incubated at 37° C. with orbital shaking at approximately 60 RPM for the 15 minutes. After this incubation, 30 μL was removed from each well, added to 200 μL scintillation fluid, and counted on a 1450 Microbeta (Perkin-Elmer) to measure the probe substrate uptake. Inhibition potential of the compound being tested was calculated by dividing the transporter-mediated uptake rate in presence of the compound being tested or the reference inhibitor by the transporter-mediated uptake rate in presence of vehicle control and fitted to a sigmoidal function to determine the IC50 values.

TLR8 = TLR8 (Homo sapiens (Human), UniProt Q9NR97); test: TLR8 human peripheral blood mononuclear cell (PBMC) cell-based assay (Compound A as agonist; TNFα and IL12p40 readout); settings: human PBMCs, TLR8 agonist Compound A at 800 nM, 6 hours, antagonist potency; read-out: TLR-8 EC50
TLR8, sequence (Q9NR97 27-1041): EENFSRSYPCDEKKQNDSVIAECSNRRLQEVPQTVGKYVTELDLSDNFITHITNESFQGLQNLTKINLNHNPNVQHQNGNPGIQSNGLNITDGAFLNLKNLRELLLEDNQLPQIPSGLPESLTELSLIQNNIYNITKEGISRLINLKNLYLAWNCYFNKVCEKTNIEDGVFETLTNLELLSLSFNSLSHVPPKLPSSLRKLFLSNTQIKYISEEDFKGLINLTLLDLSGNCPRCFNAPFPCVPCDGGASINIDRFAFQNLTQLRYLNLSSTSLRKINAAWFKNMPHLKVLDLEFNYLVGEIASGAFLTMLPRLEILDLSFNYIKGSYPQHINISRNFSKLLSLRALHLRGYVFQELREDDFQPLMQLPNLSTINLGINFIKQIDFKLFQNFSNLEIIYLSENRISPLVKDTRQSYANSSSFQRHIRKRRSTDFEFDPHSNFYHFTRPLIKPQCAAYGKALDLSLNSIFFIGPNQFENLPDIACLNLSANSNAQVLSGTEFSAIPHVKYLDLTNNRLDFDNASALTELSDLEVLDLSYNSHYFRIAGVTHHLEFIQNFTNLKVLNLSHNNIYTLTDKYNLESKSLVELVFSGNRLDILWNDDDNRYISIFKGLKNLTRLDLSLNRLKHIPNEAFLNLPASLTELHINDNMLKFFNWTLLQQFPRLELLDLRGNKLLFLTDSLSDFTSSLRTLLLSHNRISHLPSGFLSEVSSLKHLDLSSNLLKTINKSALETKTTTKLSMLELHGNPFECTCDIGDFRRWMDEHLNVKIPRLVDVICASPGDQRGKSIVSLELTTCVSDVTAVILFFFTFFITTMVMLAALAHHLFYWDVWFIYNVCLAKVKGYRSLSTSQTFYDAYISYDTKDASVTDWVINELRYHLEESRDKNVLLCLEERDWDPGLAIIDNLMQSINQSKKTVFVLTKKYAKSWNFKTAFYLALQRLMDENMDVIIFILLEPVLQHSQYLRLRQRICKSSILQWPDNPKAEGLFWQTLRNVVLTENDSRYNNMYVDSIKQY

TLR7 = TLR7 (Homo sapiens (Human), UniProt Q9NYK1); test: TLR7 human peripheral blood mononuclear cell (PBMC) cell-based assay (GS-986 as agonist; IL-6 and IFNα readout); settings: human PBMCs, TLR7 agonist GS-986 at 400 nM, 6 hours, antagonist potency; read-out: TLR-7 EC50
TLR7, sequence (Q9NYK1 27-1049): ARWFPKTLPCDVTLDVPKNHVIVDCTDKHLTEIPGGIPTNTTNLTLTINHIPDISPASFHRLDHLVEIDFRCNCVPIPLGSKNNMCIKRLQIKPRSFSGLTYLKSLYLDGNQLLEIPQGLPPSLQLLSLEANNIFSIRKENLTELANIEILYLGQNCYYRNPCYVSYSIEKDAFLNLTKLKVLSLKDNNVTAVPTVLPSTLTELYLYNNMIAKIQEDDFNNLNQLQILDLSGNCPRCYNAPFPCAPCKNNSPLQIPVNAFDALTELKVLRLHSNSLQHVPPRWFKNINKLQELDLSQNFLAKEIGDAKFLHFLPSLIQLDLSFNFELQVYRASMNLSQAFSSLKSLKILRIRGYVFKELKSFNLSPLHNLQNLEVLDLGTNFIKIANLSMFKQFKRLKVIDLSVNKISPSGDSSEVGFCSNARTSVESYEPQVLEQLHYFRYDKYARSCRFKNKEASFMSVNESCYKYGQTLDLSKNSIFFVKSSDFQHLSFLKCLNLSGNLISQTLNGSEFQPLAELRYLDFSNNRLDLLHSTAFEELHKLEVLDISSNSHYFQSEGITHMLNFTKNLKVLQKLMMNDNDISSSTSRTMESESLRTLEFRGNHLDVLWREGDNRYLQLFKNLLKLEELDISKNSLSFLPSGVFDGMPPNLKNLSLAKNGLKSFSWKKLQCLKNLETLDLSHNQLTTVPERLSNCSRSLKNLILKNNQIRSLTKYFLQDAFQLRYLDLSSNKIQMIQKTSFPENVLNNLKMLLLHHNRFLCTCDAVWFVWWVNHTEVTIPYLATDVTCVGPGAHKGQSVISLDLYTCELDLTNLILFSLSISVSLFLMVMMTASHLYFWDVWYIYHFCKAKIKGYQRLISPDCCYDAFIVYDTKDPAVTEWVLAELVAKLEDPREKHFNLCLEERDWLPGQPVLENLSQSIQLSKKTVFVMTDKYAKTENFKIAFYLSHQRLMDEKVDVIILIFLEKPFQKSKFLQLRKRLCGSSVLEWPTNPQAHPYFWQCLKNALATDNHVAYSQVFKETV
Outline: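 IL-6 and IFNα released into supernatant were quantified by electrochemiluminescence immunoassay. Before that, human PBMCs at 100,000 per well received a 10-point antagonist titration for 1 h, then TLR7 agonist for 6 more hours, all at 37 °C, 5% CO2.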

[2] = Kinetic solubility at pH 7.4; settings: 1×PBS buffer (pH 7.4), 22.8 °C, pH 7.4, aqueous buffer, kinetic from dmso stock
Procedure: Kinetic Solubility at pH 7.4
(§1) The final DMSO Concentration was 1.0% and maximum theoretical compound concentration is 100 μM. The filter plate was sealed. […] The collection plate was sealed for analysis.
(§2) Filtrates were injected into the nitrogen detector for quantification on Analiza's Automated Discovery Workstation. The results are reported in μg/ml.
(§3) The filtrates were quantified with respect to this calibration curve. The calculated solubility values were corrected for background nitrogen present in the DMSO, and the media used to prepare the samples.
(§4) The 1×PBS buffer (pH 7.4) was prepared by adding 50 mL of phosphate buffered saline solution 10×, PBS (Fisher Bioreagent part number BP399-500) to approximately 450 mL HPLC grade H2O. The volume of the solution was then adjusted to 500 mL for a total dilution factor of 1:10 and a final PBS concentration of 1×. The pH of the final solution was measured and found to be 7.4.
(§5) Each compound tested was analyzed as a trifluoroacetate salt.

[3] = system: cryopreserved hepatocytes; test: Human hepatic stability in cryopreserved hepatocytes; settings: 1×10^6 cells/mL, aliquots at 0, 1, 3 and 6 hours, LC-MS/MS
Procedure: (§6) Each tested compound was incubated in suspensions of cryopreserved hepatocytes at a final concentration of 1 μM. Vials containing cryopreserved hepatocytes were removed from liquid nitrogen and immediately immersed in a 37° C. water bath. The vials were swirled gently until the contents had thawed. They were then immediately emptied into 48 mL of pre-warmed HT medium in a 50 mL conical tube. Cells remaining in the vial were resuspended with 1.0 mL of pre-warmed HT medium and added to the conical tube. The tube was capped and then gently inverted several times to re-suspend the hepatocytes. The cell suspension was centrifuged at 500×g for 10 minutes at room temperature and the supernatant discarded. The cell pellet was loosened by gently swirling the centrifuge tube. Non-supplemented KHB medium was added to obtain the appropriate target cell density.
(§7) For incubations, aliquots of hepatocyte suspension (250 mL at a concentration of 2×10^6 cells/mL) were added to 250 mL of 2 mM of each tested compound in KHB, in duplicate wells in a 24-well plate. Final concentration in the incubations were 1×10^6 cells/mL and 1 mM of each tested compound. […] A cell-free control was also tested in parallel with the incubations. The incubations were carried out with gentle shaking in a 37° C. incubator under a humid atmosphere of 95% air/5% CO2 (v/v). Aliquots (100 mL) were removed after 0, 1, 3, and 6 hours and added to 200 mL IS/Q. The samples were then placed on a shaker for 10 min followed by centrifugation at 3000×g for 20 min. The supernatant was transferred to a new plate and diluted with 100 μL of water to reduce the organic solvent content and then placed on a shaker for 10 mins. Samples were injected and analyzed using LC-MS/MS.

[4] = system: cryopreserved hepatocytes; settings: human, 1 μM
Procedure: as §6, §7

physchem = settings: 22.8 °C, pH 7.4, aqueous buffer, kinetic from dmso stock
Procedure: Kinetic Solubility at pH 7.4
as §1, §2, §3, §4, §5

[5] = transfected MDCK-II cells, 10 μM 14C-metformin probe substrate, read-out: MATE2-K IC50

MATE2-K (multidrug and toxin extrusion protein 2), sequence (Q86VL8 other isoform, or with tags, fused parts or gaps, species assumed): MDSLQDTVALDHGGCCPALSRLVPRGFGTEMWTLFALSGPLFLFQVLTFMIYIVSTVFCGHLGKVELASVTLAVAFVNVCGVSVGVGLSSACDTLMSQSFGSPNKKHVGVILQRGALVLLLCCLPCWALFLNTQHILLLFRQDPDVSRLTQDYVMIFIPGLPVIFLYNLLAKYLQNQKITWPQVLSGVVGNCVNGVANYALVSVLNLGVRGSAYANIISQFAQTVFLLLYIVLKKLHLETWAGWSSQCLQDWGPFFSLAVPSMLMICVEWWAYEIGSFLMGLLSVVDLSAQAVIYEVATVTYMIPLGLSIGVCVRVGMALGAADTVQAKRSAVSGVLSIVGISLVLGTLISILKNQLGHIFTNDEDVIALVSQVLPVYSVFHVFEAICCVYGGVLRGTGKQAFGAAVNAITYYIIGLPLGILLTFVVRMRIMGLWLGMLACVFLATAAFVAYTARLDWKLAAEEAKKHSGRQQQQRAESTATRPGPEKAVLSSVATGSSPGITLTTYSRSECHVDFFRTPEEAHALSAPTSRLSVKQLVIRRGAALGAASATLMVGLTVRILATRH

Cc1c(-c2[nH]c3sc([C@@H]4C[C@@H]5C[C@H]4CN5C(C)C(N)=O)c(C)c3c2C(C)C)cn2ncnc2c1C (single isomer, unassigned) [Example 100]
IC50 [1, 5]: 9700 nM
EC50 (TLR8): 0.71 nM
EC50 (TLR7): 0.32 nM
solubility kinetic at 24 h [2]: 23.5 µg/mL (≈ 47.9 µM)

Cc1c(-c2[nH]c3sc(C4CCN(C(=O)[C@H]5COCCN5)CC4)c(C)c3c2C(C)C)cn2ncnc2c1C [Example 56]
IC50 [1, 5]: 7700 nM
EC50 (TLR8): 2.46 nM
EC50 (TLR7): 0.24 nM
solubility kinetic at 24 h [2]: 26.5 µg/mL (≈ 50.9 µM)
Predicted Clearance [3]: 4.17 mL/min/kg

Cc1c(-c2[nH]c3sc(C4CCN(CC(N)=O)CC4)c(C)c3c2C(C)C)cn2ncnc2c1C [Example 67]
IC50 [1]: 6200 nM
EC50 (TLR8): 2.08 nM
EC50 (TLR7): 0.35 nM
solubility kinetic at 24 h [2]: 16.8 µg/mL (≈ 36.2 µM)
Predicted Clearance [3]: 2.33 mL/min/kg

Cc1c(-c2[nH]c3sc([C@@H]4C[C@@H]5C[C@H]4CN5CC(N)=O)c(C)c3c2C(C)C)cn2ncnc2c1C [Example 79, 2-((1S,4R,5R)-5-(5-(7,8-dimethyl-[1,2,4]triazolo[1,5-a]pyridin-6-yl)-4 isopropyl-3-methyl-6H-thieno[2,3-b]pyrrol-2-yl)-2-azabicyclo[2.2.1]heptan-2-yl)acetamide]
IC50 [1]: 8100 nM
EC50 (TLR8): 0.23 nM
EC50 (TLR7): 0.12 nM
solubility kinetic at 24 h [2]: 21.5 µg/mL (≈ 45.1 µM)
Predicted Clearance [3]: 4.33 mL/min/kg

CNC(=O)CN1C[C@@H]2C[C@H]1C[C@H]2c1sc2[nH]c(-c3cn4ncnc4c(C)c3C)c(C(C)C)c2c1C [Example 82]
IC50 [1]: > 14500 nM
EC50 (TLR8): 0.17 nM
EC50 (TLR7): 0.37 nM

Cc1c(-c2[nH]c3sc([C@H]4C[C@H]5C[C@@H]4CN5CC(N)=O)c(C)c3c2C(C)C)cn2ncnc2c1C [Example 84]
EC50 (TLR8): 0.81 nM
EC50 (TLR7): 0.13 nM
Predicted Clearance [3]: 8.83 mL/min/kg

Cc1c(-c2[nH]c3sc([C@@H]4C[C@H]5CC[C@@H](C4)N5CC(N)=O)c(C)c3c2C(C)C)cn2ncnc2c1C [Example 91]
IC50 [1]: 7800 nM
Predicted Clearance [4]: 4 mL/min/kg
EC50 (TLR8): 5.41 nM
EC50 (TLR7): 0.09 nM
solubility kinetic at 24 h (physchem): 2.2 µg/mL (≈ 4.48 µM)

Cc1c(-c2[nH]c3sc([C@@H]4C[C@@H]5C[C@H]4CN5CC(N)=O)cc3c2C(C)C)cn2ncnc2c1C [Example 97]
EC50 (TLR8): 1.09 nM
EC50 (TLR7): 0.31 nM
solubility kinetic at 24 h [2]: 22.8 µg/mL (≈ 49.3 µM)
Predicted Clearance [3]: 13.5 mL/min/kg

Cc1c(-c2[nH]c3sc(C4CCN(C(=O)[C@H]5CCCN5)CC4)c(C)c3c2C(C)C)cn2ncnc2c1C [Example 98]
EC50 (TLR8): 4.48 nM
EC50 (TLR7): 0.05 nM
solubility kinetic at 24 h [2]: 24.9 µg/mL (≈ 49.3 µM)
Predicted Clearance [3]: 1.83 mL/min/kg

Cc1c(-c2[nH]c3sc([C@@H]4C[C@@H]5C[C@H]4CN5Cc4cn(C)nn4)c(C)c3c2C(C)C)cn2ncnc2c1C [Example 175]
EC50 (TLR8): < 0.05 nM
EC50 (TLR7): < 0.05 nM
solubility kinetic at 24 h [2]: 21.1 µg/mL (≈ 41 µM)
Predicted Clearance [3]: 4.33 mL/min/kg

Cc1c(-c2[nH]c3sc([C@H]4C[C@@H]5C[C@H]4CN5CC(N)=O)c(C)c3c2C(C)C)cn2ncnc2c1C [Example 183]
EC50 (TLR8): 2.82 nM
EC50 (TLR7): 0.07 nM
Predicted Clearance [3]: 10.7 mL/min/kg

Cc1c(-c2[nH]c3sc(C4CCN(CC(N)=O)CC4)cc3c2C(C)C)cn2ncnc2c1C [Example 221]
EC50 (TLR8): 3.2 nM
EC50 (TLR7): 0.99 nM
solubility kinetic at 24 h [2]: 1 µg/mL (≈ 2.22 µM)
Predicted Clearance [3]: 2.67 mL/min/kg

Cc1c(-c2[nH]c3sc([C@@H]4C[C@@H]5C[C@H]4CN5CCO)c(C)c3c2C(C)C)cn2ncnc2c1C [Example 229]
EC50 (TLR8): 0.35 nM
EC50 (TLR7): 0.06 nM
solubility kinetic at 24 h [2]: 27.7 µg/mL (≈ 59.7 µM)
Predicted Clearance [3]: 3.67 mL/min/kg

Cc1c(-c2[nH]c3sc([C@@H]4C[C@@H]5C[C@H]4CN5C(CO)CO)c(C)c3c2C(C)C)cn2ncnc2c1C [Example 308, 2-((1S,4R,5R)-5-(5-(7,8-dimethyl-[1,2,4]triazolo[1,5-a]pyridin-6-yl)-4 isopropyl-3-methyl-6H-thieno[2,3-b]pyrrol-2-yl)-2-azabicyclo[2.2.1]heptan-2-yl)propane-1,3-diol]
EC50 (TLR8): 1.16 nM
EC50 (TLR7): < 0.05 nM

Cc1c(-c2[nH]c3sc(C4CCC(C(=O)N5CCNCC5)CC4)c(C)c3c2C(C)C)cn2ncnc2c1C (stereo not shown) [Example 309, (4-(5-(7,8-dimethyl-[1,2,4]triazolo[1,5-a]pyridin-6-yl)-4-isopropyl-3-methyl-6H-thieno[2,3-b]pyrrol-2-yl)cyclohexyl)(piperazin-1-yl)methanone]
EC50 (TLR8): 8.07 nM
EC50 (TLR7): 0.14 nM

Cc1c(C2CCC(C(=O)N3CCNCC3)CC2)sc2[nH]c(-c3cc(C)c4ncnn4c3)c(C(C)C)c12 (stereo not shown) [Example 310]
EC50 (TLR8): 9.94 nM
EC50 (TLR7): 0.25 nM

Cc1c(-c2[nH]c3ccc(C4CCN(CC(N)=O)CC4)cc3c2C(C)C)cn2ncnc2c1C [Example A-1, reference compound]
IC50 [1, 5]: 300 nM
solubility kinetic at 24 h [2]: < 1 µg/mL
Predicted Clearance [3]: 4.5 mL/min/kg

COc1cc(-c2[nH]c3cc(C4CCNCC4)sc3c2C(C)C)cn2ncnc12 [Example B-1, reference compound]
IC50 [1]: 1100 nM
EC50 (TLR8): 2.55 nM
EC50 (TLR7): 0.3 nM
solubility kinetic at 24 h [2]: 22 µg/mL (≈ 55.6 µM)
Predicted Clearance [3]: 4.33 mL/min/kg
